Source: ChEMBL document CHEMBL3390838, “Synthesis, anti-proliferative and proapoptotic activity of novel oleanolic acid azaheterocyclic derivatives” (Medchemcomm, 2012)
The source made the active and inactive calls. The rule behind the calls is not given here.

Key:
MDA-MB-231 = test: Cytotoxicity against human MDA-MB-231 cells after 72 hrs by MTT assay; assay type: functional, cell-based; conditions: MDA-MB-231, 72 h
[1] = Cytotoxicity against human Bel7404 cells after 72 hrs by MTT assay; assay type: functional, cell-based; conditions: BEL-7404, 72 h
K562 = test: Cytotoxicity against human K562 cells after 72 hrs by MTT assay; assay type: functional, cell-based; conditions: K562, 72 h
[2] = Cytotoxicity against human HL60 cells after 72 hrs by MTT assay; assay type: functional, cell-based; conditions: HL-60, 72 h
BEL-7404 tumor cell line [3] = test: Induction of apoptosis in human Bel7404 cells assessed as increase in cytochrome c protein level at 60 uM at 24 hrs by Western blot analysis relative to control; assay type: functional
BEL-7404 tumor cell line [4] = test: Induction of apoptosis in human Bel7404 cells assessed as decrease in procaspase 3 protein level at 60 uM at 36 hrs by Western blot analysis relative to control; assay type: functional
[5] = Cell cycle arrest in human Bel7404 cells assessed as accumulation at G2/M phase at 40 uM after 24 hrs by PI-based flow cytometry ( Rvb = 0.11 % ); assay type: functional; conditions: BEL-7404
[6] = Cell cycle arrest in human Bel7404 cells assessed as accumulation at S phase at 20 uM after 24 hrs by PI-based flow cytometry ( Rvb = 43.38 % ); assay type: functional; conditions: BEL-7404
BEL-7404 tumor cell line [7] = test: Induction of apoptosis in human Bel7404 cells assessed as increase in cytochrome c protein level at 60 uM at 36 hrs by Western blot analysis relative to control; assay type: functional
BEL-7404 tumor cell line [8] = test: Induction of apoptosis in human Bel7404 cells assessed as nuclear shrinking at 60 uM after 48 hrs using Hoechst staining by fluorescence microscopy; assay type: functional, cell-based
BEL-7404 tumor cell line [9] = test: Induction of apoptosis in human Bel7404 cells assessed as reduction in Bcl2 protein expression at 60 uM at 36 hrs by Western blot analysis relative to control; assay type: functional
[10] = Cell cycle arrest in human Bel7404 cells assessed as accumulation at S phase at 40 uM after 24 hrs by PI-based flow cytometry ( Rvb = 43.38 % ); assay type: functional; conditions: BEL-7404
[11] = Cell cycle arrest in human Bel7404 cells assessed as increase in G0/G1 phase after 24 hrs by PI-based flow cytometry; assay type: functional; conditions: BEL-7404
[12] = Cell cycle arrest in human Bel7404 cells assessed as accumulation at G0/G1 phase at 40 uM after 24 hrs by PI-based flow cytometry ( Rvb = 56.50 % ); assay type: functional; conditions: BEL-7404
BEL-7404 tumor cell line [13] = test: Induction of apoptosis in human Bel7404 cells assessed as increase in Bax protein expression at 60 uM at 36 hrs by Western blot analysis relative to control; assay type: functional
[14] = Cell cycle arrest in human Bel7404 cells assessed as decrease in S phase after 24 hrs by PI-based flow cytometry; assay type: functional; conditions: BEL-7404
[15] = Cell cycle arrest in human Bel7404 cells assessed as accumulation at G0/G1 phase at 20 uM after 24 hrs by PI-based flow cytometry ( Rvb = 56.50 % ); assay type: functional; conditions: BEL-7404
BEL-7404 tumor cell line [16] = test: Induction of apoptosis in human Bel7404 cells assessed as increase in Bax protein expression at 60 uM at 12 hrs by Western blot analysis relative to control; assay type: functional
BEL-7404 tumor cell line [17] = test: Induction of apoptosis in human Bel7404 cells assessed as increase in Bax protein expression at 60 uM at 48 hrs by Western blot analysis relative to control; assay type: functional
BEL-7404 tumor cell line [18] = test: Induction of apoptosis in human Bel7404 cells assessed as decrease in procaspase 3 protein level at 60 uM at 48 hrs by Western blot analysis relative to control; assay type: functional
BEL-7404 tumor cell line [19] = test: Induction of apoptosis in human Bel7404 cells assessed as increase in procaspase 9 protein level at 60 uM at 12 hrs by Western blot analysis relative to control; assay type: functional
BEL-7404 tumor cell line [20] = test: Induction of apoptosis in human Bel7404 cells assessed as increase in procaspase 9 protein level at 60 uM at 48 hrs by Western blot analysis relative to control; assay type: functional
[21] = Cell cycle arrest in human Bel7404 cells assessed as accumulation at G0/G1 phase at 60 uM after 24 hrs by PI-based flow cytometry ( Rvb = 56.50 % ); assay type: functional; conditions: BEL-7404
BEL-7404 tumor cell line [22] = test: Induction of apoptosis in human Bel7404 cells assessed as increase in Bax protein expression at 60 uM at 24 hrs by Western blot analysis relative to control; assay type: functional
[23] = Cytotoxicity against human L02 cells at 20 to 160 uM after 72 hrs by MTT assay; assay type: cell-based; conditions: l02, 72 h
BEL-7404 tumor cell line [24] = test: Induction of apoptosis in human Bel7404 cells assessed as reduction in Bcl2 protein expression at 60 uM at 24 hrs by Western blot analysis relative to control; assay type: functional
BEL-7404 tumor cell line [25] = test: Induction of apoptosis in human Bel7404 cells assessed as increase in procaspase 9 protein level at 60 uM at 36 hrs by Western blot analysis relative to control; assay type: functional
[26] = Cell cycle arrest in human Bel7404 cells assessed as accumulation at G2/M phase at 60 uM after 24 hrs by PI-based flow cytometry ( Rvb = 0.11 % ); assay type: functional; conditions: BEL-7404
[27] = Cell cycle arrest in human Bel7404 cells assessed as accumulation at S phase at 60 uM after 24 hrs by PI-based flow cytometry ( Rvb = 43.38 % ); assay type: functional; conditions: BEL-7404
[28] = Cell cycle arrest in human Bel7404 cells assessed as decrease in G2/M phase after 24 hrs by PI-based flow cytometry; assay type: functional; conditions: BEL-7404
BEL-7404 tumor cell line [29] = test: Induction of apoptosis in human Bel7404 cells assessed as decrease in procaspase 3 protein level at 60 uM at 12 hrs by Western blot analysis relative to control; assay type: functional
BEL-7404 tumor cell line [30] = test: Induction of apoptosis in human Bel7404 cells assessed as increase in cytochrome c protein level at 60 uM at 12 hrs by Western blot analysis relative to control; assay type: functional
[31] = Cell cycle arrest in human Bel7404 cells assessed as accumulation at G2/M phase at 20 uM after 24 hrs by PI-based flow cytometry ( Rvb = 0.11 % ); assay type: functional; conditions: BEL-7404
BEL-7404 tumor cell line [32] = test: Induction of apoptosis in human Bel7404 cells assessed as reduction in Bcl2 protein expression at 60 uM at 12 hrs by Western blot analysis relative to control; assay type: functional
BEL-7404 tumor cell line [33] = test: Induction of apoptosis in human Bel7404 cells assessed as increase in procaspase 9 protein level at 60 uM at 24 hrs by Western blot analysis relative to control; assay type: functional
BEL-7404 tumor cell line [34] = test: Induction of apoptosis in human Bel7404 cells assessed as nuclear condensation at 60 uM after 48 hrs using Hoechst staining by fluorescence microscopy; assay type: functional, cell-based
BEL-7404 tumor cell line [35] = test: Induction of apoptosis in human Bel7404 cells assessed as apoptotic bodies at 60 uM after 48 hrs using Hoechst staining by fluorescence microscopy; assay type: functional, cell-based
BEL-7404 tumor cell line [36] = test: Induction of apoptosis in human Bel7404 cells assessed as membrane blebbing at 60 uM after 48 hrs using Hoechst staining by fluorescence microscopy; assay type: functional, cell-based
BEL-7404 tumor cell line [37] = test: Induction of apoptosis in human Bel7404 cells assessed as decrease in procaspase 3 protein level at 60 uM at 24 hrs by Western blot analysis relative to control; assay type: functional
BEL-7404 tumor cell line [38] = test: Induction of apoptosis in human Bel7404 cells assessed as reduction in Bcl2 protein expression at 60 uM at 48 hrs by Western blot analysis relative to control; assay type: functional
BEL-7404 tumor cell line [39] = test: Induction of apoptosis in human Bel7404 cells assessed as increase in cytochrome c protein level at 60 uM at 48 hrs by Western blot analysis relative to control; assay type: functional

SMILES: CC1(C)CC[C@]2(C(=O)O)CC[C@]3(C)C(=CC[C@@H]4[C@@]5(C)Cc6nonc6C(C)(C)[C@@H]5CC[C@]43C)[C@@H]2C1
- IC50 (MDA-MB-231): 53.6 µM
- IC50 [1]: 30.9 µM
- IC50 (K562): 49.7 µM
- IC50 [2]: 46.1 µM

SMILES: CC1(C)CC[C@]2(C(=O)O)CC[C@]3(C)C(=CC[C@@H]4[C@@]5(C)CC[C@H](O)C(C)(C)[C@@H]5CC[C@]43C)[C@@H]2C1 [OLEANOLIC_ACID]
- IC50 (MDA-MB-231): 67.9 µM
- IC50 [1]: 57.9 µM
- IC50 (K562): 58.1 µM
- IC50 [2]: 54.6 µM

SMILES: CC(=O)n1nc2c(n1)C(C)(C)[C@@H]1CC[C@]3(C)[C@H](CC=C4[C@@H]5CC(C)(C)CC[C@]5(C(=O)O)CC[C@]43C)[C@@]1(C)C2
- IC50 (MDA-MB-231): 61.7 µM
- IC50 [1]: 45.1 µM
- IC50 (K562): 67.6 µM
- IC50 [2]: 76.6 µM

SMILES: CC1(C)CC[C@]2(C(=O)O)CC[C@]3(C)C(=CC[C@@H]4[C@@]5(C)Cc6cnc(N)nc6C(C)(C)[C@@H]5CC[C@]43C)[C@@H]2C1
- fold change (FC) (BEL-7404 tumor cell line [3]): 2.6
- fold change (FC) (BEL-7404 tumor cell line [4]): 0.4
- Activity [5]: 0%
- IC50 (MDA-MB-231): 44.8 µM
- Activity [6]: 41.6%
- fold change (FC) (BEL-7404 tumor cell line [7]): 2.7
- Activity (BEL-7404 tumor cell line [8]): Active
- fold change (FC) (BEL-7404 tumor cell line [9]): 0.4
- Activity [10]: 37.1%
- Activity [11]: Dose-dependent effect
- Activity [12]: 62.9%
- fold change (FC) (BEL-7404 tumor cell line [13]): 7.6
- Activity [14]: Dose-dependent effect
- Activity [15]: 58.4%
- fold change (FC) (BEL-7404 tumor cell line [16]): 1.5
- fold change (FC) (BEL-7404 tumor cell line [17]): 7.7
- IC50 [1]: 35.1 µM
- fold change (FC) (BEL-7404 tumor cell line [18]): 0.1
- fold change (FC) (BEL-7404 tumor cell line [19]): 0.7
- fold change (FC) (BEL-7404 tumor cell line [20]): 0.1
- Activity [21]: 73%
- fold change (FC) (BEL-7404 tumor cell line [22]): 1.5
- Activity [23]: Non-toxic
- fold change (FC) (BEL-7404 tumor cell line [24]): 0.5
- fold change (FC) (BEL-7404 tumor cell line [25]): 0.2
- Activity [26]: 0%
- Activity [27]: 27%
- IC50 (K562): 39.3 µM
- Activity [28]: Dose-dependent effect
- fold change (FC) (BEL-7404 tumor cell line [29]): 0.8
- IC50 [2]: 42.6 µM
- fold change (FC) (BEL-7404 tumor cell line [30]): 1.3
- Activity [31]: 0%
- fold change (FC) (BEL-7404 tumor cell line [32]): 1
- fold change (FC) (BEL-7404 tumor cell line [33]): 0.6
- Activity (BEL-7404 tumor cell line [34]): Active
- Activity (BEL-7404 tumor cell line [35]): Active
- Activity (BEL-7404 tumor cell line [36]): Active
- fold change (FC) (BEL-7404 tumor cell line [37]): 0.6
- fold change (FC) (BEL-7404 tumor cell line [38]): 0.4
- fold change (FC) (BEL-7404 tumor cell line [39]): 7

SMILES: CC1(C)CC[C@]2(C(=O)O)CC[C@]3(C)C(=CC[C@@H]4[C@@]5(C)Cc6cnoc6C(C)(C)[C@@H]5CC[C@]43C)[C@@H]2C1
- IC50 (MDA-MB-231): 53.7 µM
- IC50 [1]: 36 µM
- IC50 (K562): 11.4 µM
- IC50 [2]: 42.1 µM
